Source: patent publication US6531308B2, “Ketoreductase gene and protein from yeast” (Eli Lilly and Company, priority 1997, dated 2003)

System: wild-type ketoreductase from Z. rouxii (SEQ ID NO: 2)
Assay: Reductase activity of Z. rouxii ketoreductase, substrate specificity (NADPH oxidation, absorbance at 340 nm)
Type: biochemical
Protocol: Reductase activity was measured using a suitable substrate and a partially purified or substantially purified ketoreductase from Z. rouxii. Activity was measured as a function of the absorbance change at 340 nm, resulting from the oxidation of NADPH. […] Reaction mixtures were first equilibrated at 26° C. for 10 min in the absence of NADPH, and then initiated by addition of NADPH. […] The kinetic parameters for 3,4-methylenedioxyphenyl acetone were determined at an NADPH concentration of 112 μM and a 3,4-methylenedioxyphenyl acetone concentration that varied from 1.7 mM -7.2 mM. The kinetic parameters for NADPH were determined by maintaining the 3,4-methylenedioxyphenyl acetone concentration at 3 mM and the NADPH concentration was varied from 20.5 μM-236.0 μM. An extinction coefficient of 6220 M^−1 cm^−1 for NADPH absorbance at 340 nm was used to calculate the specific activity of the enzyme. For assays using isatin, the change in absorbance with time was measured at 414 nm using an extinction coefficient of 849 M^−1 cm^−1 to calculate activity. One Unit of activity corresponds to 1 μmol of NADPH consumed per minute. For assays carried out at differing pH values, 10 mM Bis-Tris and 10 mM Tris were adjusted to the appropriate pH with HCl. Kinetic parameters were determined by non-linear regression using the JMP® statistics and graphics program.

Compound: CC(=O)CCc1ccc2c(c1)OCO2
- % Relative Activity (substrate concentration 5 mM): 18%

Compound: CCOC(=O)CC(=O)CCl
- % Relative Activity (substrate concentration 5 mM): 42%

Compound: CC(C)(CO)C(=O)C(=O)O
- % Relative Activity (substrate concentration 4 mM): 37%

Compound: CC(=O)c1ccccc1
- % Relative Activity (substrate concentration 0.6 mM): 4%

Compound: CC(=O)CCc1ccccc1
- % Relative Activity (substrate concentration 0.6 mM): 0%

Compound: CC1(C)COC(=O)C1=O
- % Relative Activity (substrate concentration 3 mM): 194%

Compound: O=C1Nc2ccccc2C1=O
- % Relative Activity (substrate concentration 0.8 mM): 86%

Compound: CC(=O)CN1C(=O)c2ccccc2C1=O
- % Relative Activity (substrate concentration 0.6 mM): 17%

Compound: CC1(C)[C@H]2CC[C@]1(C)C(=O)C2=O
- % Relative Activity (substrate concentration 5 mM): 100%

Compound: CC1(C)[C@@H]2CC[C@@]1(C)C(=O)C2=O
- % Relative Activity (substrate concentration 5 mM): 32%

Compound: CC(=O)Cc1ccc2c(c1)OCO2 [3,4-methylenedioxyphenyl acetone]
- % Relative Activity (substrate concentration 3 mM): 100%
